# Biological target: T1, human Farnesoid X Receptor (FXR) ligand binding domain (GST-FXR LBD) (Homo sapiens, UniProt Q96RI1)
# T1 construct: purchased Invitrogen
# T1 sequence (Q96RI1 193-472 isoform Q96RI1-2): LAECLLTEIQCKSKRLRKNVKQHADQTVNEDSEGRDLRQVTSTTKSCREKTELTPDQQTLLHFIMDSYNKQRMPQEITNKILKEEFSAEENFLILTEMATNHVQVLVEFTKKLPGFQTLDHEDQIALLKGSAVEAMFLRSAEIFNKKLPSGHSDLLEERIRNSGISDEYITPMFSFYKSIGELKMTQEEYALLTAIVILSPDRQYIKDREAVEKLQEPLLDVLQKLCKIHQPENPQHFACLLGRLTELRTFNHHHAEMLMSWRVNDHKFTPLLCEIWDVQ
# Assay: Human GST-FXR LBD co-activator interaction assay (FXR HTRF assay)
# Format: biochemical
# Details: ligand-dependent interaction of GST-FXR LBD with biotin-labeled SRC-1 peptide, response relative to GW4064, read-out: FXR coactivator interaction assay (HTRF)
# Excerpt: Human GST-FXR LBD Co-Activator Interaction Assay
# The FXR HTRF assay is a biochemical assay measuring the interaction between FXR and a coactivator protein (SRC1). The ligand-induced interaction with a coactivator protein is a critical step in transcriptional activation by FXR. Thus, this is an assay designed to measure FXR agonist activity of the test compounds.
# Recombinant human Farnesoid X Receptor (FXR) ligand binding domain (amino acids 193-472) fused to glutathione S-transferase (GST) purified protein (GST-FXR LBD) was purchased (Invitrogen). The ligand-dependent interaction between GST-FXR LBD and a peptide derived from Steroid Receptor Coactivator-1 (SRC-1) was monitored by Fluorescence Resonance Energy Transfer (FRET). […] Test compounds (in DMSO solution) and detection reagents (anti-GST-Cryptate labeled antibody and Streptavidin-XL665 conjugate; CisBio) were added in assay buffer containing 50 mM KF. Plates are incubated at room temperature in the dark for 2.5 hrs before reading on an Envision (PerkinElmer) at 665 nm and 590 nm. The HTRF assay results were calculated from the 665 nm/590 nm ratio (ratio=(A665 nm/A590 nm)×10^4) and expressed in Delta F %=(Ratiosample−Rationegative)/Rationegative×100.
# A negative control (without Streptavidin-XL665) was run with each assay and represented the background fluorescence. A reference FXR agonist, (E)-3-(2-chloro-4-((3-(2,6-dichlorophenyl)-5-isopropylisoxazol-4-yl)methoxy)styryl)benzoic acid (Compound GW4064), was included in each experiment as positive control. The efficacy of each test compound was compared to that of GW4064. At each concentration, the relative activity of the test compound was expressed as Response %=(Rsample−RDMSO)/(Rpositive−RDMSO), where Rsample is the HTRF response (expressed in Delta F %) for the test compound, Rpositive is the maximal response for GW4064 at saturating concentrations, and RDMSO is the response for DMSO control. The EC50 values were calculated using GraphPad Prism (GraphPad Software) using non-linear regression curve fit (log(agonist) vs. response—variable slope (four parameters)).
row,EC50 [nM],Compound
1,12,"Cn1nc(C(=O)N(CC(=O)NCC2CC2)Cc2ccccc2F)c2c1-c1cc(F)ccc1OC2 [Compound 65, N-(2-((cyclopropylmethyl)amino)-2-oxoethyl)-8-fluoro-N-(2-fluorobenzyl)-1-methyl-1,4-dihydrochromeno[4,3-c]pyrazole-3-carboxamide]"
2,78,"CC(C)NC(=O)CN(Cc1cc(F)cc(F)c1)C(=O)c1nn(C)c2c1COc1ccc(Cl)cc1-2 [Compound 24, 2-(1-{8-chloro-1-methyl-1H,4H-chromeno[4,3-c]pyrazol-3-yl}-N-[(3,5-difluorophenyl)methyl]formamido)-N-(propan-2-yl)acetamide]"
3,22,"CC(C)C(=O)NCCN(Cc1ccccc1)C(=O)c1nn(C)c2c1COc1ccc(Br)cc1-2 [Compound 68, N-[2-(N-benzyl-1-{8-bromo-1-methyl-1H,4H-chromeno[4,3-c]pyrazol-3-yl}formamido)ethyl]-2-methylpropanamide]"
4,32,"CC(C)NC(=O)CN(Cc1ccccc1)C(=O)c1nn(C)c2c1COc1ccc(Br)cc1-2 [Compound 25, 2-(N-benzyl-1-{8-bromo-1-methyl-1H,4H-chromeno[4,3-c]pyrazol-3-yl}formamido)-N (propan-2-yl)acetamide]"
5,197,"CC(C)NC(=O)CN(Cc1ccccc1F)C(=O)c1nn(C)c2c1COc1ccc(Cl)cc1-2 [Compound 29, 2-(1-{8-chloro-1-methyl-1H,4H-chromeno[4,3-c]pyrazol-3-yl}-N-[(2-fluorophenyl)methyl]formamido)-N-(propan-2-yl)acetamide]"
6,21,"Cn1nc(C(=O)N(CC(=O)NC2CC2(F)F)Cc2cccc(F)c2)c2c1-c1cc(Cl)ccc1OC2 (centres unmarked) [Compound 10, 2-(1-{8-chloro-1-methyl-1H,4H-chromeno[4,3-c]pyrazol-3-yl}-N-[(3-fluorophenyl)methyl]formamido)-N-(2,2-difluorocyclopropyl)acetamide]"
7,1700,"Cn1nc(C(=O)N(CC(=O)NC(C)(C)c2ccccc2)Cc2ccccc2F)c2c1-c1cc(Cl)ccc1OC2 [Compound 43, 2-(1-{8-chloro-1-methyl-1H,4H-chromeno[4,3-c]pyrazol-3-yl}-N-[(2-fluorophenyl)methyl]formamido)-N-(2-phenylpropan-2-yl)acetamide]"
8,1080,"CC(C)NC(=O)NCCN(Cc1ccccc1F)C(=O)c1nn(C)c2c1COc1ccc(Cl)cc1-2 [Compound 61, 8-chloro-N-[(2-fluorophenyl)methyl]-1-methyl-N-(2-{[(propan-2-yl)carbamoyl]amino}ethyl)-1H,4H-chromeno[4,3-c]pyrazole-3-carboxamide]"
9,19,"Cn1nc(C(=O)N(CC(=O)NCC(C)(C)O)Cc2ccccc2F)c2c1-c1cc(Cl)ccc1OC2 [Compound 46, 2-(1-{8-chloro-1-methyl-1H,4H-chromeno[4,3-c]pyrazol-3-yl}-N-[(2-fluorophenyl)methyl]formamido)-N-(2-hydroxy-2-methylpropyl)acetamide]"
10,64,"Cn1nc(C(=O)N(CC(=O)NC2CCCC2)Cc2ccccc2F)c2c1-c1cc(Cl)ccc1OC2 [Compound 18, 2-(1-{8-chloro-1-methyl-1H,4H-chromeno[4,3-c]pyrazol-3-yl}-N-[(2-fluorophenyl)methyl]formamido)-N-cyclopentylacetamide]"
11,87,"Cn1nc(C(=O)N(CC(=O)NCC2CC2)CC2CCCC2)c2c1-c1cc(Cl)ccc1OC2 [Compound 75, 2-(1-{8-chloro-1-methyl-1H,4H-chromeno[4,3-c]pyrazol-3-yl}-N-(cyclopentylmethyl)formamido)-N-(cyclopropylmethyl)acetamide]"
12,1610,"Cn1nccc1NC(=O)CN(Cc1ccccc1F)C(=O)c1nn(C)c2c1COc1ccc(Cl)cc1-2 [Compound 41, 2-(1-{8-chloro-1-methyl-1H,4H-chromeno[4,3-c]pyrazol-3-yl}-N-[(2-fluorophenyl)methyl]formamido)-N-(1-methyl-1H-pyrazol-5-yl)acetamide]"
13,608,"Cn1nc(C(=O)N(CC(=O)NCC2CC2)CC2CCOCC2)c2c1-c1cc(Cl)ccc1OC2 [Compound 40, 2-(1-{8-chloro-1-methyl-1H,4H-chromeno[4,3-c]pyrazol-3-yl}-N-(oxan-4-ylmethyl)formamido)-N-(cyclopropylmethyl)acetamide]"
14,2230,"Cn1nc(C(=O)N(CC(=O)NCC2CC2)Cc2ccccc2F)c2c1-c1cc(Br)ccc1OC2(C)C [Compound 78, 2-(1-{8-bromo-1,4,4-trimethyl-1H,4H-chromeno[4,3-c]pyrazol-3-yl}-N-[(2-fluorophenyl)methyl]formamido)-N-(cyclopropylmethyl)acetamide]"
15,2,"Cn1nc(C(=O)N(CC(=O)NCC2CC2)Cc2cccc(F)c2)c2c1-c1cc(Cl)ccc1OC2 [Compound 1, 8-chloro-N-(2-((cyclopropylmethyl)amino)-2-oxoethyl)-N-(3-fluorobenzyl)-1-methyl-1,4-dihydrochromeno[4,3-c]pyrazole-3-carboxamide]"
16,366,"CC(C)NC(=O)CN(Cc1c(F)cccc1F)C(=O)c1nn(C)c2c1COc1ccc(Cl)cc1-2 [Compound 35, 2-(1-{8-chloro-1-methyl-1H,4H-chromeno[4,3-c]pyrazol-3-yl}-N-[(2,6-difluorophenyl)methyl]formamido)-N-(propan-2-yl)acetamide]"
17,12,"Cn1nc(C(=O)N(CC(=O)NCC2CC2)Cc2cccc(F)c2F)c2c1-c1cc(Cl)ccc1OC2 [Compound 6, 2-(1-{8-chloro-1-methyl-1H,4H-chromeno[4,3-c]pyrazol-3-yl}-N-[(2,3-difluorophenyl)methyl]formamido)-N-(cyclopropylmethyl) acetamide]"
